The results in this text go back to patent US8722849B2, “Polypeptides” (Novo Nordisk A/S, priority 2011, dated 2014).

The assay relates to food intake. Put plainly: Assay (I) efficacy testing on appetite (food intake), ad libitum fed rat model. Particulars: 3 nmol/kg. Format: in vivo, Sprague Dawley (SD) rats. The method in brief:
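Sprague Dawley rats (200–250 g), single-housed under reversed light cycle with free food and water, got one ip, po or sc dose of 0.01–3 mg/kg just before lights-off. Individual food intake recorded hourly for 7 h, then at 24 h and sometimes 48 h; groups of 5–8, Grubbs outliers excluded.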

Each structure is given as a SMILES string. Starred links: 1 amine or outer side, 2 acyl side, 3 side chain; linkers in the order of their positions; H or OH if unused. Positions of bridges follow the written chain, without caps; N, C: chain ends. Non-standard residues stand in square brackets, D forms with d. Residues, ends and D or L forms follow the SMILES beside them. *: point of attachment. C20 diacid = O=C(O)CCCCCCCCCCCCCCCCCCC(=O)*; C18 diacid = O=C(O)CCCCCCCCCCCCCCCCC(=O)*; γGlu = O=C(O)[C@H](CCC(=O)[*:2])N[*:1]; Orn = NCCC[C@H](N)C(=O)O; AEEA = NCCOCCOCC(=O)O

For the compound `CC[C@H](C)[C@H](NC(=O)[C@@H]1CCCN1C(=O)CNC(=O)[C@H](Cc1ccccc1)NC(=O)[C@H](CC(N)=O)NC(=O)[C@H](CC(N)=O)NC(=O)[C@H](CO)NC(=O)[C@H](CO)NC(=O)[C@H](Cc1c[nH]cn1)NC(=O)[C@H](Cc1c[nH]cn1)NC(=O)[C@H](CC(C)C)NC(=O)[C@H](Cc1ccccc1)NC(=O)[C@H](CCC(=O)O)NC(=O)[C@H](C)NC(=O)[C@H](CC(C)C)NC(=O)[C@H](CCCNC(=N)N)NC(=O)[C@H](CCC(N)=O)NC(=O)[C@@H](NC(=O)[C@H](C)NC(=O)[C@@H]1CSSC[C@H](NC(=O)[C@H](CCCCN)NC(=O)[C@H](CCC(=O)O)NC(=O)CC[C@H](NC(=O)CCCCCCCCCCCCCCCCC(=O)O)C(=O)O)C(=O)N[C@@H](CC(N)=O)C(=O)N[C@@H]([C@@H](C)O)C(=O)N[C@@H](C)C(=O)N[C@@H]([C@@H](C)O)C(=O)N1)[C@@H](C)O)C(=O)N[C@@H](CC(C)C)C(=O)N1CCC[C@H]1C(=O)N1CCC[C@H]1C(=O)N[C@H](C(=O)N[C@@H](CC(N)=O)C(=O)N[C@H](C(=O)NCC(=O)N[C@@H](CO)C(=O)N[C@@H](CC(N)=O)C(=O)N[C@H](C(=O)N[C@@H](Cc1ccc(O)cc1)C(N)=O)[C@@H](C)O)C(C)C)[C@@H](C)O` [Example 42, N-alpha-[(S)-4-Carboxy-4-(17-carboxyheptadecanoylamino)butyryl]-Glu-[Glu14,His17]-pramlintide] ({C18 diacid-γGlu}-EKCNTATCATQRLAEFLHHSSNNFGPILPPTNVGSNTY-NH2; disulfide 3-8 (inferred)), the “Food intake reduction 0-24 h 3 nmol/kg (%)” value worked out at 45% and the “Food intake reduction 24-48 h 3 nmol/kg (%)” value turned out to be 5%.
Regarding `CC[C@H](C)[C@H](NC(=O)[C@@H]1CCCN1C(=O)CNC(=O)[C@H](Cc1ccccc1)NC(=O)[C@H](CC(N)=O)NC(=O)[C@H](CC(N)=O)NC(=O)[C@H](CO)NC(=O)[C@H](CO)NC(=O)[C@H](Cc1c[nH]cn1)NC(=O)[C@H](Cc1c[nH]cn1)NC(=O)[C@H](CC(C)C)NC(=O)[C@H](Cc1ccccc1)NC(=O)[C@H](CCC(=O)O)NC(=O)[C@H](C)NC(=O)[C@H](CC(C)C)NC(=O)[C@H](CCCNC(=N)N)NC(=O)[C@H](CCC(N)=O)NC(=O)[C@@H](NC(=O)[C@H](C)NC(=O)[C@@H]1CSSC[C@H](NC(=O)[C@H](Cc2c[nH]cn2)NC(=O)CC[C@H](NC(=O)CCCCCCCCCCCCCCCCCCC(=O)O)C(=O)O)C(=O)N[C@@H](CC(N)=O)C(=O)N[C@@H]([C@@H](C)O)C(=O)N[C@@H](C)C(=O)N[C@@H]([C@@H](C)O)C(=O)N1)[C@@H](C)O)C(=O)N[C@@H](CC(C)C)C(=O)N1CCC[C@H]1C(=O)N1CCC[C@H]1C(=O)N[C@H](C(=O)N[C@@H](CC(N)=O)C(=O)N[C@H](C(=O)NCC(=O)N[C@@H](CO)C(=O)N[C@@H](CC(N)=O)C(=O)N[C@H](C(=O)N[C@@H](Cc1ccc(O)cc1)C(N)=O)[C@@H](C)O)C(C)C)[C@@H](C)O` [Example 18, N-alpha-[(S)-4-Carboxy-4-(19-carboxynonadecanoylamino)butyryl]-[His1,Glu14,His17]-pramlintide] ({C20 diacid-γGlu}-HCNTATCATQRLAEFLHHSSNNFGPILPPTNVGSNTY-NH2; disulfide 2-7 (inferred); C-terminus assumed), the “Food intake reduction 0-24 h 3 nmol/kg (%)” value stood at 40% and the “Food intake reduction 24-48 h 3 nmol/kg (%)” value is given as 32%.
For the compound `CC[C@H](C)[C@H](NC(=O)[C@@H]1CCCN1C(=O)CNC(=O)[C@H](Cc1ccccc1)NC(=O)[C@H](CC(N)=O)NC(=O)[C@H](CC(N)=O)NC(=O)[C@H](CO)NC(=O)[C@H](CO)NC(=O)[C@H](Cc1c[nH]cn1)NC(=O)[C@H](CCCNC(=N)N)NC(=O)[C@H](CC(C)C)NC(=O)[C@H](Cc1ccccc1)NC(=O)[C@H](CCC(=O)O)NC(=O)[C@H](C)NC(=O)[C@H](CC(C)C)NC(=O)[C@H](CCCNC(=N)N)NC(=O)[C@H](CCC(N)=O)NC(=O)[C@@H](NC(=O)[C@H](C)NC(=O)[C@@H]1CSSC[C@H](NC(=O)[C@H](CCCCN)NC(=O)[C@H](Cc2c[nH]cn2)NC(=O)CC[C@H](NC(=O)CCCCCCCCCCCCCCCCC(=O)O)C(=O)O)C(=O)N[C@@H](CC(N)=O)C(=O)N[C@@H]([C@@H](C)O)C(=O)N[C@@H](C)C(=O)N[C@@H]([C@@H](C)O)C(=O)N1)[C@@H](C)O)C(=O)N[C@@H](CC(C)C)C(=O)N1CCC[C@H]1C(=O)N1CCC[C@H]1C(=O)N[C@H](C(=O)N[C@@H](CC(N)=O)C(=O)N[C@H](C(=O)NCC(=O)N[C@@H](CO)C(=O)N[C@@H](Cc1c[nH]cn1)C(=O)N[C@H](C(=O)N[C@@H](Cc1ccc(O)cc1)C(N)=O)[C@@H](C)O)C(C)C)[C@@H](C)O` [Example 71, N-alpha-[(S)-4-Carboxy-4-(17-carboxyheptadecanoylamino)butyryl]-His-[Glu14,Arg17,His35]-pramlintide] ({C18 diacid-γGlu}-HKCNTATCATQRLAEFLRHSSNNFGPILPPTNVGSHTY-NH2; disulfide 3-8 (inferred); C-terminus assumed), the “Food intake reduction 0-24 h 3 nmol/kg (%)” value was found to be 10% and the “Food intake reduction 24-48 h 3 nmol/kg (%)” value turned out to be 0%.
For `CC[C@H](C)[C@H](NC(=O)[C@@H]1CCCN1C(=O)CNC(=O)[C@H](Cc1ccccc1)NC(=O)[C@H](CC(N)=O)NC(=O)[C@H](CC(N)=O)NC(=O)[C@H](CO)NC(=O)[C@H](CO)NC(=O)[C@H](Cc1c[nH]cn1)NC(=O)[C@H](CCCNC(=N)N)NC(=O)[C@H](CC(C)C)NC(=O)[C@H](Cc1ccccc1)NC(=O)[C@H](CCC(=O)O)NC(=O)[C@H](C)NC(=O)[C@H](CC(C)C)NC(=O)[C@H](CCCNC(=N)N)NC(=O)[C@H](CCC(N)=O)NC(=O)[C@@H](NC(=O)[C@H](C)NC(=O)[C@@H]1CSSC[C@H](NC(=O)[C@H](CCCCN)NC(=O)CC[C@H](NC(=O)CCCCCCCCCCCCCCCCCCC(=O)O)C(=O)O)C(=O)N[C@@H](CC(N)=O)C(=O)N[C@@H]([C@@H](C)O)C(=O)N[C@@H](C)C(=O)N[C@@H]([C@@H](C)O)C(=O)N1)[C@@H](C)O)C(=O)N[C@@H](CC(C)C)C(=O)N1CCC[C@H]1C(=O)N1CCC[C@H]1C(=O)N[C@H](C(=O)N[C@@H](CC(N)=O)C(=O)N[C@H](C(=O)NCC(=O)N[C@@H](CO)C(=O)N[C@@H](CC(N)=O)C(=O)N[C@H](C(=O)N[C@@H](Cc1ccc(O)cc1)C(N)=O)[C@@H](C)O)C(C)C)[C@@H](C)O` [Example 50, N-alpha-[(S)-4-Carboxy-4-(19-carboxynonadecanoylamino)butyryl]-[Glu14,Arg17]-pramlintide] ({C20 diacid-γGlu}-KCNTATCATQRLAEFLRHSSNNFGPILPPTNVGSNTY-NH2; disulfide 2-7 (inferred)), the “Food intake reduction 0-24 h 3 nmol/kg (%)” value is 30% and the “Food intake reduction 24-48 h 3 nmol/kg (%)” value was found to be 8%.
Regarding `CC[C@H](C)[C@H](NC(=O)[C@@H]1CCCN1C(=O)CNC(=O)[C@H](Cc1ccccc1)NC(=O)[C@H](CC(N)=O)NC(=O)[C@H](CC(N)=O)NC(=O)[C@H](CO)NC(=O)[C@H](CO)NC(=O)[C@H](CCCNC(=N)N)NC(=O)[C@H](Cc1c[nH]cn1)NC(=O)[C@H](CC(C)C)NC(=O)[C@H](Cc1ccccc1)NC(=O)[C@H](CCC(=O)O)NC(=O)[C@H](C)NC(=O)[C@H](CC(C)C)NC(=O)[C@H](CCCNC(=N)N)NC(=O)[C@H](CCC(N)=O)NC(=O)[C@@H](NC(=O)[C@H](C)NC(=O)[C@@H]1CSSC[C@H](NC(=O)[C@H](CCCN)NC(=O)[C@@H](CCCNC(=N)N)NC(=O)[C@@H](CCCNC(=N)N)NC(=O)COCCOCCNC(=O)COCCOCCNC(=O)CC[C@H](NC(=O)CCCCCCCCCCCCCCCCC(=O)O)C(=O)O)C(=O)N[C@@H](CC(N)=O)C(=O)N[C@@H]([C@@H](C)O)C(=O)N[C@@H](C)C(=O)N[C@@H]([C@@H](C)O)C(=O)N1)[C@@H](C)O)C(=O)N[C@@H](CC(C)C)C(=O)N1CCC[C@H]1C(=O)N1CCC[C@H]1C(=O)N[C@H](C(=O)N[C@@H](CC(N)=O)C(=O)N[C@H](C(=O)NCC(=O)N[C@@H](CO)C(=O)N[C@@H](CC(N)=O)C(=O)N[C@H](C(=O)N[C@@H](Cc1ccc(O)cc1)C(N)=O)[C@@H](C)O)C(C)C)[C@@H](C)O` [Example 120, N-alpha-[2-(2-{2-[2-(2-{2-[(S)-4-Carboxy-4-(17-carboxyheptadecanoylamino)butyrylamino]ethoxy}ethoxy)acetylamino]ethoxy}ethoxy)acetyl]-D-Arg-D-Arg-[Orn1,Glu14,His17,Arg18]-pramlintide] ({C18 diacid-γGlu-AEEA-AEEA}-[dR][dR][Orn]CNTATCATQRLAEFLHRSSNNFGPILPPTNVGSNTY-NH2; disulfide 4-9 (inferred); C-terminus assumed), the “Food intake reduction 0-24 h 3 nmol/kg (%)” value came out at 53% and the “Food intake reduction 24-48 h 3 nmol/kg (%)” value is reported as 2%.
Turning to `CC[C@H](C)[C@H](NC(=O)[C@@H]1CCCN1C(=O)CNC(=O)[C@H](Cc1ccccc1)NC(=O)[C@H](CC(N)=O)NC(=O)[C@H](CCC(N)=O)NC(=O)[C@H](CO)NC(=O)[C@H](CO)NC(=O)[C@H](Cc1c[nH]cn1)NC(=O)[C@H](Cc1c[nH]cn1)NC(=O)[C@H](CC(C)C)NC(=O)[C@H](Cc1ccccc1)NC(=O)[C@H](CCC(=O)O)NC(=O)[C@H](C)NC(=O)[C@H](CC(C)C)NC(=O)[C@H](CCCNC(=N)N)NC(=O)[C@H](CCC(N)=O)NC(=O)[C@@H](NC(=O)[C@H](C)NC(=O)[C@@H]1CSSC[C@H](NC(=O)[C@H](CCCCN)NC(=O)CC[C@H](NC(=O)CCCCCCCCCCCCCCCCCCC(=O)O)C(=O)O)C(=O)N[C@@H](CC(N)=O)C(=O)N[C@@H]([C@@H](C)O)C(=O)N[C@@H](C)C(=O)N[C@@H]([C@@H](C)O)C(=O)N1)[C@@H](C)O)C(=O)N[C@@H](CC(C)C)C(=O)N1CCC[C@H]1C(=O)N1CCC[C@H]1C(=O)N[C@H](C(=O)N[C@@H](CC(N)=O)C(=O)N[C@H](C(=O)NCC(=O)N[C@@H](CO)C(=O)N[C@@H](Cc1c[nH]cn1)C(=O)N[C@H](C(=O)N[C@@H](Cc1ccc(O)cc1)C(N)=O)[C@@H](C)O)C(C)C)[C@@H](C)O` [Example 117, N-alpha-[(S)-4-Carboxy-4-(19-carboxynonadecanoylamino)butyryl]-[Glu14,His17,Gln21,His35)-pramlintide] ({C20 diacid-γGlu}-KCNTATCATQRLAEFLHHSSQNFGPILPPTNVGSHTY-NH2; disulfide 2-7 (inferred); C-terminus assumed), the “Food intake reduction 0-24 h 3 nmol/kg (%)” value is recorded as 50% and the “Food intake reduction 24-48 h 3 nmol/kg (%)” value was 35%.
